Measured values from patent publication US11447445B2, “Diabetes and metabolic syndrome treatment with a novel dual modulator of soluble epoxide hydrolase and peroxisome proliferator-activated receptors” (priority 2015, dated 2022).
Values after ≈ are worked out from the molar mass of the structure shown. Like-named read-outs stand apart in the source and are kept apart here.

Tests used:
[1] = target: T1, recombinant human sEH (Homo sapiens, UniProt P34913); experiment: biochemical; settings: for inhibition at 10 µM: read-out: sEH inhibition @10 μM (converted)
T1 sequence (P34913 1-555): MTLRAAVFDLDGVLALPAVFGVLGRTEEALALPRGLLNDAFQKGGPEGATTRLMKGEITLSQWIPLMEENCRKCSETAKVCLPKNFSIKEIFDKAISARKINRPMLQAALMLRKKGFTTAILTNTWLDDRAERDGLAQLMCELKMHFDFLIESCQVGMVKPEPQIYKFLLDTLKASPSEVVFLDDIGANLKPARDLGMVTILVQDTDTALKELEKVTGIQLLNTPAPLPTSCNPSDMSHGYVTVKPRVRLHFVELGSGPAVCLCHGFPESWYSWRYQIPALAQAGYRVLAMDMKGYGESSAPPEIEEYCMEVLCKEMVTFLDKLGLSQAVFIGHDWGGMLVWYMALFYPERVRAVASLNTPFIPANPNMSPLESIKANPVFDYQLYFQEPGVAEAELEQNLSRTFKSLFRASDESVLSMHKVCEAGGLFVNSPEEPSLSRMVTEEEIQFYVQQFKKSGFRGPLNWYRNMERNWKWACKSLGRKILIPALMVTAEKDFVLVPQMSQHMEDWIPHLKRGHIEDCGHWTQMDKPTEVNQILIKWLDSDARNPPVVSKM

[2] = target: T2, PPARα (Homo sapiens, UniProt Q07869); type: cell-based
T2 construct: expressed in transfected cells; host or cells: COS-7
T2 sequence (Q07869 239-466): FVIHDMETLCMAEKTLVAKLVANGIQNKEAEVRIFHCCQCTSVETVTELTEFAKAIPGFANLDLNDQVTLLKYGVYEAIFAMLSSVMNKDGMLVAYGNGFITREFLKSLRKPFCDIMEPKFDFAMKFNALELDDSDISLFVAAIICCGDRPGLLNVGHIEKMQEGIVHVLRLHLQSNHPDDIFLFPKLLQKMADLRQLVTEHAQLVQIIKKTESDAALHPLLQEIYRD
Method: (§1) COS-7 cells (PPAR) were grown in DMEM high glucose, supplemented with 10% fetal calf serum (FCS), 1% sodium pyruvate (SP) and 1% penicillin/streptomycin (PS) at 37° C. and 5% CO2. Used plasmids for PPAR transactivation assay are shown under supporting informations.
(§2) The day before transfection, COS-7 cells were seeded in 96-well plates with a density of 30,000 cells per well. Transient transfection was carried out using Lipofectamine LTX reagent (Invitrogen, Carlsbad, Calif., USA) according to the manufacturer's protocol with pFR-Luc (Stratagene), pRL-SV40 (Promega) and the Ga14-fusion receptor plasmids (pFA-CMV-hPPAR-LBD) of the respective PPAR subtype. 5 h after transfection, medium was changed to DMEM without phenol red and 10% FCS, supplemented with 1% SP, 1% PS and 1% L-glutamine, now additionally containing 0.1% DMSO and the respective test compound or 0.1% DMSO alone as untreated control. Each concentration was tested in triplicate wells and each experiment was repeated independently at least three times. Following overnight incubation with the test compounds, cells were assayed for luciferase activity using Dual-Glo™ Luciferase Assay System (Promega) according to the manufacturer's protocol. Luminescence was measured with an Infinite m200 luminometer (Tecan Deutschland GmbH). Each concentration of the compounds was tested in triplicate wells. Normalization for transfection efficacy and cell growth was done by division of the firefly luciferase data by renilla luciferase data resulting in relative light units. Activation factors were obtained by dividing by DMSO control. […] All compounds were evaluated by comparison of the achieved maximum effect to that of the reference compound (pioglitazone for PPARγ, GW7647 for PPARa, and L165041 for PPARS each with 1 μM). Data are expressed as mean±SE; n≥3.
(§3) The Gal4-fusion receptor plasmids pFA-CMV-PPARa-LBD, pFA-CMV-PPARS-LBD and pFA-CMV-PPARγ-LBD containing the hinge region and ligand binding domain (LBD) for each of the PPAR subtypes, respectively, were constructed by integrating cDNA fragments obtained from PCR amplification of human monocytes into the SmaI/XbaI cleavage site of the pFA-CMV vector (Stratagene, La Jolla, Calif., USA) and have already been published. […] Frame and sequence of the fusion receptors were verified by sequencing. pFR-Luc (Stratagene) was used as reporter plasmid and pRL-SV40 (Promega) for normalization of transfection efficacy and cell growth.

[3] = target: T3, PPARδ (Homo sapiens, UniProt Q03181); experiment: PPAR transactivation assay in COS-7 cells (Gal4-hPPAR-LBD, luciferase); type: cell-based
T3 construct: expressed in transfected cells; host or cells: COS-7
T3 sequence (Q03181 211-439): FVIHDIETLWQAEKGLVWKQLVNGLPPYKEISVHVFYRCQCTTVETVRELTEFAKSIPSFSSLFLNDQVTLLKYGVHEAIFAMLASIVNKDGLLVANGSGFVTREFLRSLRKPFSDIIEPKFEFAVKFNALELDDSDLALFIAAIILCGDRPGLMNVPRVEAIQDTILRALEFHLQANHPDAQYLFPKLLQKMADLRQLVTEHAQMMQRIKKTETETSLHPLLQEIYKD
Method: as §1, §2, §3

[4] = target: T4, PPARγ (Homo sapiens, UniProt P37231); experiment: cell-based; type: cell-based; settings: for activation at 10 µM: COS-7, read-out: PPARγ activation @10 μM, at 10 μM, compared to pioglitazone 1 μM; for EC50 PPARγ: i.a. = inactive
T4 construct: expressed in transfected cells; host or cells: COS-7
T4 sequence (P37231 238-503): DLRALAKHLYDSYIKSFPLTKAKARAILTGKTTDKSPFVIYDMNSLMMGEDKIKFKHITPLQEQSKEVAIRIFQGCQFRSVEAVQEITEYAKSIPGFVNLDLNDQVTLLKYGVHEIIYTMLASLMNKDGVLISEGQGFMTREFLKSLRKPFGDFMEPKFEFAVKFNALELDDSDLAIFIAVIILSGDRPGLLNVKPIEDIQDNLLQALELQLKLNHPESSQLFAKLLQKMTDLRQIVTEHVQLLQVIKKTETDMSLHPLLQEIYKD
Method: as §1, §2, §3

[5] = Water solubility approximation; type: physicochemical; settings: PBS with 0.01% Polysorbate 20, aqueous with cosolvent or surfactant or cyclodextrin, kinetic from dmso stock; PBS pH 7.4, 0.01% Polysorbate 20, 1% DMSO; precipitation at 650 nm; read-out: w.s. (water solubility)
Method: PBS at pH 7.4 with 0.01% Polysorbate 20 (Tween) was combined with 1% of a DMSO solution of the inquired compound in a 96-well transparent flat bottom microtiter plate. Precipitation of the compound was measured at 650 nm with a Tecan Infinite 200 (Tecan Group Ltd, Mannedorf, Switzerland).

[6] = after p.o. 30 mg/kg bw of 1b, all time points
Method: Blood was sampled 15 min, 30 min, 1 h, 2 h, 4 h and 8 h after test item application and only 8 h after vehicle application. Each drug treated mouse was sampled twice (0.25 and 0.5 h, 1 and 2 h, 4 and 8 h) via retro orbital puncture. Blood was collected in tubes containing lithium-heparin, stored on ice and subsequently centrifuged at 6000 rpm for 10 minutes at 4° C. (Heraeus biofuge fresco). The plasma was prepared within 45 min after sampling and kept at −20° C. until being assayed. For further kinetic and dynamic analysis the tissues (brain, liver, abdominal fat) were collected 30 min, 2h and 8 h post dose, after the second plasma sampling of each drug treated mouse. Tissue of the vehicle group was sampled only once, 8 h post dose. A volume of 40 μl acetonitrile containing the internal standard (300 ng/ml Diazepam) was added to 20 μl of mouse plasma sample, plasma calibration standard and plasma QC samples. Samples were vigorously shaken and centrifuged for 10 minutes at 6000 g and 20° C. The particle free supernatant was diluted 1:1 with water. An aliquot was transferred to 200 μl sampler vials and subsequently subjected to LC MS with an injection volume of 20 pl. The brain samples were homogenized in PBS (1+1, w/v) using the Precellys 24/Dual homogenizer. A volume of 20 μl of the brain homogenate was mixed (1+1 v/v/) with 20 μl mouse blank plasma. Then 80 μl acetonitrile containing the internal standard (300 ng/ml Diazepam) were added. Samples were vigorously shaken and centrifuged for 10 minutes at 6000 g and 20° C. The particle free supernatant was diluted 1:1 with water. An aliquot was transferred to 200 μl sampler vials and subsequently subjected to LC MS with an injection volume of 20 μl. Mass spectrometry was performed on a TSQ Quantum Discovery Max triple quadrupole mass spectrometer equipped with an electrospray (ESI) interface (Thermo Fisher Scientific, USA) connected to a PC running the standard software Xcalibur 2.0.7. […]

[7] = read-out: sEH IC50 / inhibitory potency (unit inferred)

O=C(O)c1ccc(-c2ccc(C(=O)NCc3ccccc3C(F)(F)F)cc2)cc1 [Compound 25]
IC50 ([1]; read-out: IC50 sEH (converted)): 170 nM
EC50 PPARα [2]: i.a.
EC50 PPARδ [3]: i.a.
activation at 10 µM [4]: ~30%
solubility [5]: 5 µM (≈ 2 µg/mL)

CCOC(=O)/C=C/c1ccc(C(=O)NCc2ccccc2C(F)(F)F)cc1 [Compound 16a, Ethyl (E)-4-[N-((2-trifluoromethyl)benzyl)benzamide]-cinnamate]
IC50 ([1]; read-out: IC50 sEH (converted)): 130 ± 5 nM
EC50 PPARα ([2]; i.a. = inactive): i.a.
EC50 PPARδ ([3]; i.a. = inactive): i.a.
solubility [5]: 2.5 µM (≈ 0.943 µg/mL)

CCC(Cc1ccc(C(=O)NCc2ccccc2OC(F)(F)F)cc1)C(=O)O (centres unmarked) [Compound 6c, 2-Ethyl 3-[4-(N-((2-trifluoromethoxy)benzyl)benzamide)]propionic acid]
inhibition at 10 µM [1]: 23%
EC50 PPARα ([2]; i.a. = inactive): n.t. i.a. i.a. n.t.
EC50 PPARδ ([3]; i.a. = inactive): n.t. i.a. i.a. n.t.
solubility [5]: 500 µM (≈ 198 µg/mL)

CCOC(=O)C(C)Cc1ccc(C(=O)NCc2ccccc2C(F)(F)F)cc1 (centres unmarked) [Compound 17b, Ethyl 2-methyl 3-[4-(N-((2-trifluoromethyl)benzyl)benzamide)]propanoate]
IC50 ([1]; read-out: IC50 sEH (converted)): 250 ± 40 nM
EC50 PPARα ([2]; i.a. = inactive): i.a.
EC50 PPARδ ([3]; i.a. = inactive): i.a.
solubility [5]: 10 µM (≈ 3.93 µg/mL)

CCOC(=O)C(CC)Cc1ccc(C(=O)NCc2ccccc2Br)cc1 (centres unmarked) [Compound 5b, Ethyl 2-ethyl 3-[4-(N-((2-bromo)benzyl)benzamide)]propanoate]
EC50 PPARα ([2]; i.a. = inactive): n.t. i.a. i.a. n.t.
EC50 PPARδ ([3]; i.a. = inactive): n.t. i.a. i.a. n.t.
EC50 PPARγ [4]: i.a.
solubility [5]: 25 µM (≈ 10.5 µg/mL)

CC(Cc1ccc(C(=O)NCc2ccccc2C(F)(F)F)cc1)C(=O)O (centres unmarked) [Compound 17c, 2-Methyl 3-[4-(N-((2-trifluoromethyl)benzyl)benzamide)]propionic acid]
IC50 ([1]; read-out: IC50 sEH (converted)): 8000 ± 1600 nM
EC50 PPARα ([2]; i.a. = inactive): i.a.
EC50 PPARδ ([3]; i.a. = inactive): i.a.
solubility [5]: 500 µM (≈ 183 µg/mL)

CCOC(=O)CCc1ccc(C(=O)NCc2ccccc2C(F)(F)F)cc1 [Compound 16b, Ethyl 3-[4-(N-((2-trifluoromethyl)benzyl)benzamide)]propanoate]
IC50 ([1]; read-out: IC50 sEH (converted)): 110 ± 3 nM
EC50 PPARα ([2]; i.a. = inactive): i.a.
EC50 PPARδ ([3]; i.a. = inactive): i.a.
solubility [5]: 5 µM (≈ 1.9 µg/mL)

N#Cc1ccc(C(=O)NCc2ccccc2C(F)(F)F)cc1 [Compound 27, 4-Cyano-N-(2-(trifluoromethyl)benzyl)benzamide]
IC50 [1, 7]: 64 nM
EC50 PPARα ([2]; i.a. = inactive): remained unaffected
EC50 PPARδ ([3]; i.a. = inactive): remained unaffected
EC50 PPARγ [4]: remained unaffected

CCOC(=O)C(CC)Cc1ccc(C(=O)NCc2ccccc2C(F)(F)F)cc1 (centres unmarked) [Compound 1b, Ethyl 2-ethyl 3-[4-(N-((2-trifluoromethyl)benzyl)benzamide)]propanoate]
IC50 ([1]; read-out: IC50 sEH (converted)): 44 ± 5 nM
EC50 PPARα ([2]; i.a. = inactive): i.a.
EC50 PPARδ ([3]; i.a. = inactive): i.a.
1b in plasma [6]: not detected

O=C(NCc1ccccc1C(F)(F)F)c1ccc(CC(C(=O)O)c2ccccc2)cc1 (centres unmarked) [Compound 19c, 2-Phenyl 3-[4-(N-((2-trifluoromethyl)benzyl)benzamide)]propionic acid]
IC50 ([1]; read-out: IC50 sEH (converted)): 2500 ± 500 nM
EC50 PPARα ([2]; i.a. = inactive): i.a.
EC50 PPARδ ([3]; i.a. = inactive): i.a.
solubility [5]: 100 µM (≈ 42.7 µg/mL)

CCOC(=O)C(Cc1ccc(C(=O)NCc2ccccc2C(F)(F)F)cc1)c1ccccc1 (centres unmarked) [Compound 19b, Ethyl 2-phenyl 3-[4-(N-((2-trifluoromethyl)benzyl)benzamide)]propanoate]
IC50 ([1]; read-out: IC50 sEH (converted)): 120 ± 13 nM
EC50 PPARα ([2]; i.a. = inactive): i.a.
EC50 PPARδ ([3]; i.a. = inactive): i.a.
solubility [5]: 5 µM (≈ 2.28 µg/mL)

CON(C)C(=O)C1CC1c1ccc(C(=O)NCc2ccccc2C(F)(F)F)cc1 (centres unmarked) [Compound 21, N-Methoxy-N-methyl 3-[4-(N-((2-trifluoromethyl)benzyl)benzamide)]cyclopropanecarboxamide]
sEH IC50 / inhibitory potency (unit not given) [1]: double-digit nanomolar range
IC50 ([1]; read-out: IC50 sEH (converted)): 80 ± 4 nM
EC50 PPARα ([2]; i.a. = inactive): i.a.
EC50 PPARδ ([3]; i.a. = inactive): i.a.
activation at 10 µM [4]: 30%

CCC(Cc1ccc(C(=O)NCc2ccc(OC)cc2)cc1)C(=O)O (centres unmarked) [Compound 10c, 2-Ethyl 3-[4-(N-((4-methoxy)benzyl)benzamide)]propionic acid]
inhibition at 10 µM [1]: 34%
EC50 PPARα ([2]; i.a. = inactive): n.t. i.a. i.a. n.t.
EC50 PPARδ ([3]; i.a. = inactive): n.t. i.a. i.a. n.t.
solubility [5]: 500 µM (≈ 171 µg/mL)

O=C(O)c1cccc(-c2ccc(C(=O)NCc3ccccc3C(F)(F)F)cc2)c1 [Compound 26]
IC50 [1, 7]: 1000 nM
EC50 PPARα [2]: i.a.
EC50 PPARδ [3]: i.a.
activation at 10 µM [4]: ~30%

CON(C)C(=O)/C=C/c1ccc(C(=O)NCc2ccccc2C(F)(F)F)cc1 [Compound 20]
IC50 ([1]; read-out: IC50 sEH (converted)): 70 ± 20 nM
EC50 PPARα ([2]; i.a. = inactive): i.a.
EC50 PPARδ ([3]; i.a. = inactive): i.a.
EC50 PPARγ [4]: i.a.

CCCC(Cc1ccc(C(=O)NCc2ccccc2C(F)(F)F)cc1)C(=O)O (centres unmarked) [Compound 18c, 2-Propyl 3-[4-(N-((2-trifluoromethyl)benzyl)benzamide)]propionic acid]
IC50 ([1]; read-out: IC50 sEH (converted)): 5000 ± 1300 nM
EC50 PPARα ([2]; i.a. = inactive): i.a.
EC50 PPARδ ([3]; i.a. = inactive): i.a.
solubility [5]: 500 µM (≈ 197 µg/mL)

O=C(O)/C=C/c1ccc(C(=O)NCc2ccccc2C(F)(F)F)cc1 [Compound 16d, (E)-4-[N-((2-Trifluoromethyl)benzyl)benzamide]-cinnamic acid]
IC50 ([1]; read-out: IC50 sEH (converted)): 800 ± 50 nM
EC50 PPARα ([2]; i.a. = inactive): i.a.
EC50 PPARδ ([3]; i.a. = inactive): i.a.
solubility [5]: 10 µM (≈ 3.49 µg/mL)

O=C(NCc1ccccc1C(F)(F)F)c1ccc(-c2nnn[nH]2)cc1 [Compound 28, [N-(2-(Trifluoromethyl)benzyl)benzamid]-4-(1H-tetrazole)]
IC50 ([1]; read-out: IC50 sEH (converted)): 5000 nM
EC50 PPARα ([2]; i.a. = inactive): i.a.
EC50 PPARδ ([3]; i.a. = inactive): i.a.
EC50 PPARγ [4]: i.a.
solubility [5]: 500 µM (≈ 174 µg/mL)

CCC(Cc1ccc(C(=O)NCc2ccccc2Br)cc1)C(=O)O (centres unmarked) [Compound 5c, 2-Ethyl 3-[4-(N-((2-bromo)benzyl)benzamide)]propionic acid]
inhibition at 10 µM [1]: 34%
EC50 PPARα ([2]; i.a. = inactive): n.t. i.a. i.a. n.t.
EC50 PPARδ ([3]; i.a. = inactive): n.t. i.a. i.a. n.t.
solubility [5]: 500 µM (≈ 195 µg/mL)

CCCC(Cc1ccc(C(=O)NCc2ccccc2C(F)(F)F)cc1)C(=O)OCC (centres unmarked) [Compound 18b, Ethyl 2-propyl 3-[4-(N-((2-trifluoromethyl)benzyl)benzamide)]propanoate]
IC50 ([1]; read-out: IC50 sEH (converted)): 170 ± 40 nM
EC50 PPARα ([2]; i.a. = inactive): i.a.
EC50 PPARδ ([3]; i.a. = inactive): i.a.
solubility [5]: 5 µM (≈ 2.11 µg/mL)
